Test system: subjects with moderately to severely active RA who have an inadequate response to methotrexate (MTX)
Assay: Study 1 (add-on to MTX) - Aspartate Aminotransferase (AST) levels
Type: in vivo, human
Protocol: Double-blind, placebo-controlled add on study in subjects with moderately to severely active RA who have an inadequate response to methotrexate (MTX) (oral or parenteral).
595 subjects randomized to one of 6 dose regimens of Compound 1 (dosed as [Compound 1:HCl:3H2O]) (3 dose levels administered either once or twice daily) or placebo on top of each subject's stable dose of MTX.
Compound 1 (dosed as [Compound 1:HCl:3H2O]) is dosed for twelve weeks once daily (q.d.) (50 mg, 100 mg or 200 mg) or twice daily (b.i.d.) (25 mg, 50 mg or 100 mg); or placebo.
At Week 12, the subjects on placebo who have not achieved 20% improvement in swollen joint count (SJC66) and tender joint count (TJC68) are re-randomized automatically to receive Compound 1 (dosed as a [Compound 1:HCl:3H2O]) either at 100 mg q.d. or 50 mg b.i.d. doses in a blinded fashion; subjects on 50 mg q.d. who have not achieved 20% improvement in SJC66 and TJC68 will be assigned to 100 mg q.d. and subjects on 25 mg b.i.d. that have not achieved a 20% improvement in SJC66 and TJC68 will be assigned to 50 mg b.i.d. Subjects who switch treatment at week 12 are handled as if they discontinued at week 12 for the purpose of statistical analysis, whereas subjects in the other groups will maintain their randomized treatment until Week 24.
AST levels determination is available at Quest Diagnostics, Clinical Trials, Quest House, 125-135 Staines Road, Hounslow, Middlesex, TW3 3JB, United Kingdom under Catalogue n#84450. For Study 3, the data are obtained at BARC Europe, 3B,Industrie Park, Zwijnaarde, B-9052 Ghent, Belgium.
AST catalyzes the transamination of aspartate and 2-oxoglutarate, forming L-glutamate and oxalacetate. The oxalacetate is reduced to L-malate by malate dehydrogenase, whilst NADH is converted to NAD+, measured spectrophotometrically. Guidelines for the AST value have been issued by the association for Clinical Biochemistry and Laboratory Medicine, 130-132 Tooley Street LONDON SE1 2TU, united Kingdom, wherein the AST value should be below 34 U/l in Female and below 45 U/L in male. As disclosed in the respective study protocols for Study 1 or 2, at week 12, depending on the outcome of their treatment, the subjects may be continued in their initial treatment course, or reassigned to another treatment group in a randomized blinded fashion until week 24. Therefore, the number of subjects (N) for the period of either 12 weeks, or 24 weeks is provided to reflect this redistribution at week 12.

[1] = 12 weeks results, 50 mg q.d., week 1
[2] = 12 weeks results, 50 mg q.d., week 2
[3] = 12 weeks results, 50 mg q.d., week 4
[4] = 12 weeks results, 50 mg q.d., week 8
[5] = 12 weeks results, 50 mg q.d., week 12
[6] = 12 weeks results, 100 mg q.d., week 1
[7] = 12 weeks results, 100 mg q.d., week 2
[8] = 12 weeks results, 100 mg q.d., week 4
[9] = 12 weeks results, 100 mg q.d., week 8
[10] = 12 weeks results, 100 mg q.d., week 12
[11] = 12 weeks results, 200 mg q.d., week 1
[12] = 12 weeks results, 200 mg q.d., week 2
[13] = 12 weeks results, 200 mg q.d., week 4
[14] = 12 weeks results, 200 mg q.d., week 8
[15] = 12 weeks results, 200 mg q.d., week 12
[16] = 12 weeks results, 2 × 25 mg b.i.d., week 1
[17] = 12 weeks results, 2 × 25 mg b.i.d., week 2
[18] = 12 weeks results, 2 × 25 mg b.i.d., week 4
[19] = 12 weeks results, 2 × 25 mg b.i.d., week 8
[20] = 12 weeks results, 2 × 25 mg b.i.d., week 12
[21] = 12 weeks results, 2 × 50 mg b.i.d., week 1
[22] = 12 weeks results, 2 × 50 mg b.i.d., week 2
[23] = 12 weeks results, 2 × 50 mg b.i.d., week 4
[24] = 12 weeks results, 2 × 50 mg b.i.d., week 8
[25] = 12 weeks results, 2 × 50 mg b.i.d., week 12
[26] = 12 weeks results, 2 × 100 mg b.i.d., week 1
[27] = 12 weeks results, 2 × 100 mg b.i.d., week 2
[28] = 12 weeks results, 2 × 100 mg b.i.d., week 4
[29] = 12 weeks results, 2 × 100 mg b.i.d., week 8
[30] = 12 weeks results, 2 × 100 mg b.i.d., week 12
[31] = 24 weeks results, continued 25 mg b.i.d., week 1
[32] = 24 weeks results, continued 25 mg b.i.d., week 2
[33] = 24 weeks results, continued 25 mg b.i.d., week 4
[34] = 24 weeks results, continued 25 mg b.i.d., week 8
[35] = 24 weeks results, continued 25 mg b.i.d., week 12
[36] = 24 weeks results, continued 25 mg b.i.d., week 16
[37] = 24 weeks results, continued 25 mg b.i.d., week 20
[38] = 24 weeks results, continued 25 mg b.i.d., week 24
[39] = 24 weeks results, continued 50 mg b.i.d., week 1
[40] = 24 weeks results, continued 50 mg b.i.d., week 2
[41] = 24 weeks results, continued 50 mg b.i.d., week 4
[42] = 24 weeks results, continued 50 mg b.i.d., week 8
[43] = 24 weeks results, continued 50 mg b.i.d., week 12
[44] = 24 weeks results, continued 50 mg b.i.d., week 16
[45] = 24 weeks results, continued 50 mg b.i.d., week 20
[46] = 24 weeks results, continued 50 mg b.i.d., week 24
[47] = 24 weeks results, continued 50 mg q.d., week 1
[48] = 24 weeks results, continued 50 mg q.d., week 2
[49] = 24 weeks results, continued 50 mg q.d., week 4
[50] = 24 weeks results, continued 50 mg q.d., week 8

## O=C(Nc1nc2cccc(-c3ccc(CN4CCS(=O)(=O)CC4)cc3)n2n1)C1CC1 [Compound 1, cyclopropanecarboxylic acid {5-[4-(1,1-dioxo-thiomorpholin-4-ylmethyl)-phenyl]-[1,2,4]triazolo[1,5-a]pyridin-2-yl}-amide]
[1]
  Study 1 - AST Mean CFB: 1 IU/L
  Study 1 - AST Mean percentage CFB: 7%
[2]
  Study 1 - AST Mean CFB: 0 IU/L
  Study 1 - AST Mean percentage CFB: 5%
[3]
  Study 1 - AST Mean CFB: 0 IU/L
  Study 1 - AST Mean percentage CFB: 5%
[4]
  Study 1 - AST Mean CFB: 0 IU/L
  Study 1 - AST Mean percentage CFB: 7%
[5]
  Study 1 - AST Mean CFB: 1 IU/L
  Study 1 - AST Mean percentage CFB: 10%
[6]
  Study 1 - AST Mean CFB: 3 IU/L
  Study 1 - AST Mean percentage CFB: 14%
[7]
  Study 1 - AST Mean CFB: 1 IU/L
  Study 1 - AST Mean percentage CFB: 9%
[8]
  Study 1 - AST Mean CFB: 2 IU/L
  Study 1 - AST Mean percentage CFB: 11%
[9]
  Study 1 - AST Mean CFB: 3 IU/L
  Study 1 - AST Mean percentage CFB: 17%
[10]
  Study 1 - AST Mean CFB: 2 IU/L
  Study 1 - AST Mean percentage CFB: 16%
[11]
  Study 1 - AST Mean CFB: 3 IU/L
  Study 1 - AST Mean percentage CFB: 16%
[12]
  Study 1 - AST Mean CFB: 2 IU/L
  Study 1 - AST Mean percentage CFB: 13%
[13]
  Study 1 - AST Mean CFB: 3 IU/L
  Study 1 - AST Mean percentage CFB: 19%
[14]
  Study 1 - AST Mean CFB: 5 IU/L
  Study 1 - AST Mean percentage CFB: 27%
[15]
  Study 1 - AST Mean CFB: 5 IU/L
  Study 1 - AST Mean percentage CFB: 29%
[16]
  Study 1 - AST Mean CFB: 0 IU/L
  Study 1 - AST Mean percentage CFB: 3%
[17]
  Study 1 - AST Mean CFB: 0 IU/L
  Study 1 - AST Mean percentage CFB: 6%
[18]
  Study 1 - AST Mean CFB: 0 IU/L
  Study 1 - AST Mean percentage CFB: 6%
[19]
  Study 1 - AST Mean CFB: 0 IU/L
  Study 1 - AST Mean percentage CFB: 10%
[20]
  Study 1 - AST Mean CFB: 2 IU/L
  Study 1 - AST Mean percentage CFB: 14%
[21]
  Study 1 - AST Mean CFB: 1 IU/L
  Study 1 - AST Mean percentage CFB: 6%
[22]
  Study 1 - AST Mean CFB: 0 IU/L
  Study 1 - AST Mean percentage CFB: 6%
[23]
  Study 1 - AST Mean CFB: 2 IU/L
  Study 1 - AST Mean percentage CFB: 14%
[24]
  Study 1 - AST Mean CFB: 2 IU/L
  Study 1 - AST Mean percentage CFB: 14%
[25]
  Study 1 - AST Mean CFB: 2 IU/L
  Study 1 - AST Mean percentage CFB: 17%
[26]
  Study 1 - AST Mean CFB: 1 IU/L
  Study 1 - AST Mean percentage CFB: 10%
[27]
  Study 1 - AST Mean CFB: 2 IU/L
  Study 1 - AST Mean percentage CFB: 14%
[28]
  Study 1 - AST Mean CFB: 3 IU/L
  Study 1 - AST Mean percentage CFB: 19%
[29]
  Study 1 - AST Mean CFB: 2 IU/L
  Study 1 - AST Mean percentage CFB: 17%
[30]
  Study 1 - AST Mean CFB: 3 IU/L
  Study 1 - AST Mean percentage CFB: 20%
[31]
  Study 1 - AST Mean CFB: 0.7 IU/L
  Study 1 - AST Mean percentage CFB: 6.7%
[32]
  Study 1 - AST Mean CFB: 0.7 IU/L
  Study 1 - AST Mean percentage CFB: 7.1%
[33]
  Study 1 - AST Mean CFB: 1.0 IU/L
  Study 1 - AST Mean percentage CFB: 8.6%
[34]
  Study 1 - AST Mean CFB: 1.6 IU/L
  Study 1 - AST Mean percentage CFB: 14.0%
[35]
  Study 1 - AST Mean CFB: 2.2 IU/L
  Study 1 - AST Mean percentage CFB: 16.4%
[36]
  Study 1 - AST Mean CFB: 1.4 IU/L
  Study 1 - AST Mean percentage CFB: 12.6%
[37]
  Study 1 - AST Mean CFB: 1.1 IU/L
  Study 1 - AST Mean percentage CFB: 10.8%
[38]
  Study 1 - AST Mean CFB: 1.7 IU/L
  Study 1 - AST Mean percentage CFB: 14.0%
[39]
  Study 1 - AST Mean CFB: 0.5 IU/L
  Study 1 - AST Mean percentage CFB: 5.7%
[40]
  Study 1 - AST Mean CFB: 0.4 IU/L
  Study 1 - AST Mean percentage CFB: 5.5%
[41]
  Study 1 - AST Mean CFB: 1.8 IU/L
  Study 1 - AST Mean percentage CFB: 14.4%
[42]
  Study 1 - AST Mean CFB: 1.7 IU/L
  Study 1 - AST Mean percentage CFB: 14.0%
[43]
  Study 1 - AST Mean CFB: 2.4 IU/L
  Study 1 - AST Mean percentage CFB: 17.1%
[44]
  Study 1 - AST Mean CFB: 1.9 IU/L
  Study 1 - AST Mean percentage CFB: 13.7%
[45]
  Study 1 - AST Mean CFB: 3.4 IU/L
  Study 1 - AST Mean percentage CFB: 20.7%
[46]
  Study 1 - AST Mean CFB: 1.5 IU/L
  Study 1 - AST Mean percentage CFB: 11.1%
[47]
  Study 1 - AST Mean CFB: 0.8 IU/L
  Study 1 - AST Mean percentage CFB: 7.5%
[48]
  Study 1 - AST Mean CFB: −0.2 IU/L
  Study 1 - AST Mean percentage CFB: 5.7%
[49]
  Study 1 - AST Mean CFB: −0.4 IU/L
  Study 1 - AST Mean percentage CFB: 5.2%
[50]
  Study 1 - AST Mean CFB: 0.4 IU/L
  Study 1 - AST Mean percentage CFB: 9.0%
